In US8017350B2, “Glimepiride- and insulin-induced glycosylphosphatidylinositol-specific phospholipase C regulation” (Sanofi-Aventis Deutschland GmbH, priority 2004, dated 2011):

What was measured:
PI-PLC (B. cereus) = target: T1, PI-PLC (B. cereus) (Bacillus cereus, UniProt P14262); experiment: PI-PLC (B. cereus) assay, AChE substrate, TX-114 partitioning; format: biochemical
T1 construct: purchased SigmalAldrich (Deisenhofen, Germany)
Method: GPI-PLD (rat serum) was assayed according to “Hari et al. (1997) Biochim. Biophys. Acta 1355: 293-302” by incubation with 10 μl of human placental aP solution (100 U/ml in 10 mM Hepes/NaOH, pH 7.0, 150 mM NaCl) in 100 μl of 200 mM Tris/maleate (pH 7.0) and 1% Nonidet P-40 for 10 min at 37° C. and subsequent termination of the reaction by addition of 0.4 ml of ice-cold stop buffer (10 mM Hepes/NaOH, pH 7.0, 150 mM NaCl, 0.1 mM MgCl2 and 0.01 mM zinc acetate). GPI-PLC (T. brucei) was assayed as described in “Mensa-Wilmot et al. (1995) Methods Enzymol. 250: 641-655” by incubation with 5 μl of human placental aP solution (see above) in 50 μl of 50 mM Tris/HCl (pH 8.0), 0.25% Nonidet P-40 and 5 mM EDTA for 30 min at 37° C. and subsequent termination of the reaction by addition of 0.45 ml of stop buffer. PI-PLC (B. cereus) and adipocyte GPI-PLC (5-25 μg plasma membranes or hc/lcDIGs) were assayed by incubation with 10 μl of bovine erythrocyte acetylcholinesterase (AChE) solution (12 U/ml in 10 mM Tris/HCl, pH 7.4, 144 mM NaCl, 0.1% TX-100) in 100 μl of 20 mM Hepes/KOH (pH 7.8), 144 mM NaCl, 0.1% TX-100, 0.2 mM MgCl2 for 1 h at 25° C. and subsequent termination by adding 5 μl of glacial acetic acid and then 0.4 ml of 10 mM Tris/HCl (pH 7.4), 144 mM NaCl. Each reaction mixture was subjected to TX-114 partitioning (see below).
Pelleted hc/lcDIGs (10-50 μg protein) or (G)PI-PLC reaction mixtures (0.5 ml) were separated into amphiphilic and hydrophilic proteins using partitioning between TX-114-enriched and depleted phases according to “Bordier, C., (1981) J. Biol, Chem. […]” by suspending in 1 ml of ice-cold TX-114 (1%), 25 mM Tris/HCl (pH 7.4), 144 mM NaCl or mixing with 0.5 ml of ice-cold TX-114 (2%), respectively. After incubation for 1 h on ice, the mixture was layered onto a cushion of 0.4 ml of 0.25 M sucrose and 25 mM Tris/HCl (pH 7.4) on ice. Phase separation was induced by warming up to 37° C. and subsequent centrifugation (10,000×g, 1 min). After re-extraction of the lower TX-114-enriched phase, aliquots of the pooled upper TX-114-depleted phase were measured for 5′-Nuc, aP and AChE activity or precipitated (15 polyethylene glycol 4000) for SDS-PAGE analysis.
Table 1: GPI-PLC of hcDIGs from rat adipocytes, GPI-PLC from T. brucei and PI-PLC from B. cereus were incubated with solubilized and partially purified bovine erythrocyte AChE or human placental aP in the absence or presence of increasing concentrations (0.05 μM-1 mM) of the inhibitors indicated under appropriate conditions (see Materials and Methods). Cleavage rate was calculated from the amount of hydrophilic AChE and aP activity recovered with the TX-114-depleted phase upon TX-114 partitioning. Means+SD from at least 3 independent incubations with partitioning/enzyme assays in quadruplicate are given. n.a., not applicable.
Purified (G)PI-PLC/D from B. cereus, rat serum and T. brucei as well as total plasma membranes (PM) and hc/lcDIGs prepared from isolated rat adipocytes were incubated (10 min, 30° C.) with increasing concentrations of GPI-2350 and then assayed for amphiphilic-to-hydrophilic conversion of AChE and aP by TX-114 partitioning (see Materials and Methods). The lipolytic activity was calculated as % of the control reaction in the absence of GPI-2350 (set at 100%). Means+SD of at least 4 independent incubations with AChE and aP activity measurements in triplicate each are given.

[1] = system: glucose transport, rat adipocytes; experiment: Glucose transport in rat adipocytes; format: cell-based; conditions: GPI-2350 50 μM
Method: Glucose transport was determined as described in “Müller, G. et al., (1994) J. Cell Biol. 126: 1267-1276” by incubation of 10,000-20,000 washed adipocytes with 2-deoxy-D[2,6-^3H]glucose at 50 μM final conc. (0.33 μCi/ml) in 50-μl portions for 20 min at 37° C. in the absence or presence of 20 μM cytochalasin B.
Subsequently, we studied whether the differential effects of GPI-PLC inhibition on IRS-1 tyrosine phosphorylation in response to insulin and glimepiride is reflected in their metabolic activity in insulin target cells. For this, isolated rat adipocytes were pretreated with GPI-2350 prior to challenge with either stimulus, and then assayed for glucose transport and isoproterenol-induced lipolysis (FIG. 8). […] These differential effects of GPI-PLC inhibition were confirmed by analysis of the effect of GPI-2350 on the inhibition of isoproterenol-induced lipolysis by glimepiride and insulin when measured as release of NBD-FA instead of glycerol from rat adipocytes prelabeled with this fluorescent fatty acid derivative (FIG. 9).
Table 3: Isolated rat adipocytes were incubated in the presence of methyl-β-cyclodextrin (m-β-CD, 10 mM, 50 min), CBDP (300 μM, electroporation, followed by washing and subsequent incubation for 30 min), PIG41 (10 μM, 15 min), sodium orthovanadate (1 mM, 15 min), trypsin (10 μg/ml, 15 min followed by treatment with 0.5 M NaCl and subsequent washing) and N-ethylmaleimide (1 mM, 5 min followed by addition of DTT). After addition of GPI-2350 (50 μM final conc.) to one half of the adipocyte suspension and further incubation (60 min, 37° C.), portions of the cells were assayed for 5′-Nuc activity in the isolated IcDIGs. The increase in 5′-Nuc during the basal incubation was set at 100 arb. units. Other portions of the cells (after 15 min incubation) were assayed for glucose transport which was set at 100 arb. units for the basal incubation. Means+SD of at least 3 independent cell incubations with activity measurements in triplicate each are given.
FIG. 8: Effect of GPI-2350 on the glimepiride/insulin-induced metabolic activity. Isolated rat adipocytes were treated (5 min, 37° C.) without or with GPI-2350 (Panel A, 50 μM; Panel B, increasing conc.; Panel C, 5 μM, 50 μM) and then incubated (15 min, 37° C.) in the absence or presence of insulin (Ins, 10 nM) or glimepiride (Gli, 20 μM or increasing conc.) as indicated. The adipocytes were then assayed for glucose transport and isoproterenol-induced lipolysis. The activity is given relative to the absence of GPI-2350 in the control reaction (Panels A, basal) or in the insulin- and glimepiride-stimulated state (Panels B and C, set at 100). Means+SD of at least 5 independent cell incubations with activity measurements in triplicate each are given.

T1 sequence (P14262 32-329 limits assumed): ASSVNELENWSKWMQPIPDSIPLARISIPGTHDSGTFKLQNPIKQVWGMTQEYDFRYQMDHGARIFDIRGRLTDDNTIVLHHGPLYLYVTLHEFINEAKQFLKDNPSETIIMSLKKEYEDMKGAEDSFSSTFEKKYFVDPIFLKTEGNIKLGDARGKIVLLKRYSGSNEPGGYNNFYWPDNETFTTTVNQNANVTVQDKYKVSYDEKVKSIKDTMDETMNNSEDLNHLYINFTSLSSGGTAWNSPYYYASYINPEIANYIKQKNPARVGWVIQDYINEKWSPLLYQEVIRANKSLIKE

CCCCCCCCCCCCP1(=O)O[C@@H]2[C@H](O)[C@@H](O)[C@H](O)[C@@H](O)[C@@H]2O1 (some centres unmarked) [GPI-2350, myo-inositol-1,2-cyclo-dodecylphosphonic acid]
IC50 (PI-PLC (B. cereus); IC50, Table 1, inhibitor 0.05 μM-1 mM): 10 to 20 µM | IC50 (PI-PLC (B. cereus); apparent IC50, FIG. 2): 10 µM | inhibition at 1000 µM (PI-PLC (B. cereus); read-out: inhibition % at 1 mM): 75% | reversal of half-maximal inhibition (PI-PLC (B. cereus); upon 10-fold dilution with excess of fresh GPI-protein substrate): completely reversed | glimepiride-stimulated glucose transport with GPI-2350 [1]: to lower than control values
